The text below walks through data of US20250236608A1, “EGFR INHIBITORS” (Blueprint Medicines Corporation, priority 2022, published 2025).

The target in one test is EGFR L858R (Homo sapiens (Human), UniProt P00533, L858R). The test is described as follows: Biochemical EGFR inhibition assay, EGFR L858R. As to conditions: Caliper mobility shift; 1.0 mM ATP or ATP Km; read-out: Enz EGFR_L858R IC50.
Test [1] addresses pEGFR (Tyr1068) in PC-9 cells (Ex19Del) (Homo sapiens (Human), UniProt P00533, DEL746-750). Kind of test: PC-9 pEGFR AlphaLISA assay. The class given is cell-based. As to conditions: 4 hours incubation, p-EGFR (Tyr1068) AlphaLISA, read-out: Ext pEGFR_PC-9 Ex19Del IC50. The procedure, abridged:
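First, cells settled overnight in 10% FBS medium. Second, a 10-point, 4-fold series of test agents was applied for 4 h at 37° C. Third, lysates were probed with AlphaLISA acceptor and donor beads, incubated overnight in the dark. Last, IC50 was taken from the dose-response.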

The target of another test is EGFR (d746-750) (Homo sapiens (Human), UniProt P00533, DEL746-750). Kind of test: Biochemical EGFR inhibition assay, EGFR (d746-750). As to conditions: Caliper mobility shift; 1.0 mM ATP or ATP Km; read-out: Enz EGFR_Exon19-del746-750 IC50.
Sequence of EGFR (d746-750) (P00533 other isoform, or with tags, fused parts or gaps del 1-694/del 746-750 limits assumed): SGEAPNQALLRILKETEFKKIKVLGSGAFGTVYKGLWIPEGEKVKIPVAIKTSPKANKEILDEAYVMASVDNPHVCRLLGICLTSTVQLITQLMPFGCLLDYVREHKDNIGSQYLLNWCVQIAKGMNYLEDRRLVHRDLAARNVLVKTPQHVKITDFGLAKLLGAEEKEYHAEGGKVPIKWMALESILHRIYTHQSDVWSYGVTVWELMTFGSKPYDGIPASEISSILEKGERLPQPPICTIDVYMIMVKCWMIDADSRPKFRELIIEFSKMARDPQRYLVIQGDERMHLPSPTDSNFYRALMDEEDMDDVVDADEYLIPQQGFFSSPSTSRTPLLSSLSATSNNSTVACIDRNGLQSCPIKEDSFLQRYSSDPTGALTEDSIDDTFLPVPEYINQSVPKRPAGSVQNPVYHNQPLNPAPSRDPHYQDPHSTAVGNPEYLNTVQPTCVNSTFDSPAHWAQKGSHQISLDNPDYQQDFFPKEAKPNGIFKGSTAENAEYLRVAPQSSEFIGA

A word on the IC50: it is the point on the concentration scale where inhibition reaches its midpoint.

Sequence of pEGFR (Tyr1068) in PC-9 cells (Ex19Del) (P00533 other isoform, or with tags, fused parts or gaps del 746-750): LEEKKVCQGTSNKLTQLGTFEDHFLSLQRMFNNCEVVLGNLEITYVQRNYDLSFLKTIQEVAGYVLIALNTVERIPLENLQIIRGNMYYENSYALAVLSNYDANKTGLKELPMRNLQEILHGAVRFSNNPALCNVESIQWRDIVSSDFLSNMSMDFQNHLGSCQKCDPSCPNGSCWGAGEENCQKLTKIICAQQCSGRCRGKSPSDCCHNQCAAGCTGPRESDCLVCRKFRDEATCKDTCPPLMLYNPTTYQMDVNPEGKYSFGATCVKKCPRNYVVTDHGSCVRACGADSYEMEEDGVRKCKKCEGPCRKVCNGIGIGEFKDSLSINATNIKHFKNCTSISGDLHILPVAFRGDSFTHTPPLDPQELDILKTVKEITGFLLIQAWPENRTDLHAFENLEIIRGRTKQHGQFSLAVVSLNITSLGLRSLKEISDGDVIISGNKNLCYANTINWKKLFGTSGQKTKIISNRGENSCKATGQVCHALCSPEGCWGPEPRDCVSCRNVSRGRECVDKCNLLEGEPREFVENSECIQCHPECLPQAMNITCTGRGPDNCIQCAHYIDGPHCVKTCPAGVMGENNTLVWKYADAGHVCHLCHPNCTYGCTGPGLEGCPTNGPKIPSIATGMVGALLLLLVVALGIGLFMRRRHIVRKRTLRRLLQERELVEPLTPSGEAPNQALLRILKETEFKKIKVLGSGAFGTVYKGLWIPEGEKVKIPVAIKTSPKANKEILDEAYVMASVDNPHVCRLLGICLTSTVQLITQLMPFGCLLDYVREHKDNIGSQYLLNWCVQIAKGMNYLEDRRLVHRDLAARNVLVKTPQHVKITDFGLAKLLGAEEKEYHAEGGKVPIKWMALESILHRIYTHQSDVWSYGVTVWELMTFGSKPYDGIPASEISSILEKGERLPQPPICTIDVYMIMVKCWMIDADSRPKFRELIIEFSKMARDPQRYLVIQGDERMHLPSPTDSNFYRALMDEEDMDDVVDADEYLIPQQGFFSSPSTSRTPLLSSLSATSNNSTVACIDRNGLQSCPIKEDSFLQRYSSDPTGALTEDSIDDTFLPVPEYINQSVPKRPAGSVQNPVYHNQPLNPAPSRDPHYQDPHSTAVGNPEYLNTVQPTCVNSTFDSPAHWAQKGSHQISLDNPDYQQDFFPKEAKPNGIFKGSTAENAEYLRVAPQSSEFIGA
Sequence of EGFR L858R (P00533 25-1210 L858R): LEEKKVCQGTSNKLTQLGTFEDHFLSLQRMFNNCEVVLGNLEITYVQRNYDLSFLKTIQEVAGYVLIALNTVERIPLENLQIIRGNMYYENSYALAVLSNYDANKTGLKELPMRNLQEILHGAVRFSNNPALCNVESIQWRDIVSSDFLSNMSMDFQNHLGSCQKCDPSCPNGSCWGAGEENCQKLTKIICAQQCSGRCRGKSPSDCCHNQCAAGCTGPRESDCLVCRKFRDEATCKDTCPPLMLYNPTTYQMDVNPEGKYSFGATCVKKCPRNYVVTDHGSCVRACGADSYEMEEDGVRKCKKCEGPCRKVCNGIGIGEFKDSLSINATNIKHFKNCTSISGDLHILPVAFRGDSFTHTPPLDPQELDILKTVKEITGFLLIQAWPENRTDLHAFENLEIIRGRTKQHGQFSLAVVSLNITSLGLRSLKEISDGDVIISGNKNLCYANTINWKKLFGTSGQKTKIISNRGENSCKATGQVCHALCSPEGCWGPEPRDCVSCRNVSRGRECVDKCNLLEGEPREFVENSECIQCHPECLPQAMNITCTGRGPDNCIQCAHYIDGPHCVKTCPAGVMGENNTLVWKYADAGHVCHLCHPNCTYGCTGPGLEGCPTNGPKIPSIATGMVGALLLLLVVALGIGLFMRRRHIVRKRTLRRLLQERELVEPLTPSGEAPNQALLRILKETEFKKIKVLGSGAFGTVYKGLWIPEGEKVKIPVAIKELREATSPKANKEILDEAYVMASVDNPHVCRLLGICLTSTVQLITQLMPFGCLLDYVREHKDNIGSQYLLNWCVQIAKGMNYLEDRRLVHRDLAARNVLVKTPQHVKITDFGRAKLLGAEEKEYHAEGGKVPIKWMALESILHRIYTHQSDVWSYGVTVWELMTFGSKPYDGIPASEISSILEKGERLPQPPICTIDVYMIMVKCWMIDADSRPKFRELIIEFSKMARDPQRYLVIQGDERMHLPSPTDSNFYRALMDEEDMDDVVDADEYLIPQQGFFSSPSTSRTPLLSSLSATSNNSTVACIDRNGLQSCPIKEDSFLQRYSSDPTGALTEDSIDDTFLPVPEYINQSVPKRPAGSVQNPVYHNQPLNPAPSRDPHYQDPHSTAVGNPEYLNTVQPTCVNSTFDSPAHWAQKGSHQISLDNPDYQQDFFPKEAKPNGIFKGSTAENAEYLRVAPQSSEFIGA

For `CCOc1cc2ncnc(-c3cn(C)nc3-c3ccc(F)cc3)c2nc1NC(=O)[C@]12COC[C@H]1C2` (single isomer, unassigned) [Example 384, (1S,5S)—N-(7-ethoxy-4-(3-(4-fluorophenyl)-1-methyl-1H-pyrazol-4-yl)pyrido[3,2-d]pyrimidin-6-yl)-3-oxabicyclo[3.1.0]hexane-1-carboxamide or (1R,5R)—N-(7-ethoxy-4-(3-(4-fluorophenyl)-1-methyl-1H-pyrazol-4-yl)pyrido[3,2-d]pyrimidin-6-yl)-3-oxabicyclo[3.1.0]hexane-1-carboxamide], the IC50 on EGFR L858R amounted to 1.1 nM; in test [1], 1.1 nM; at EGFR (d746-750) it was 0.3 nM.

On to `COc1cc2ncnc(-c3cn(C)nc3-c3ccccc3)c2cc1NC(=O)c1nc(C)ccc1F` [Example 330, 3-fluoro-N-(7-methoxy-4-(1-methyl-3-phenyl-1H-pyrazol-4-yl)quinazolin-6-yl)-6-methylpicolinamide], for which the IC50 at EGFR L858R came to 1 nM; in test [1], 0.8 nM; at EGFR (d746-750), 0.7 nM.

Take `COc1cc2ncnc(-c3cn(C)nc3-c3ccccc3)c2nc1NC(=O)c1ccc(F)cc1` [Example 312, 4-fluoro-N-(7-methoxy-4-(1-methyl-3-phenyl-1H-pyrazol-4-yl)pyrido[3,2-d]pyrimidin-6-yl)benzamide]: the IC50 at EGFR L858R was found to be 6.9 nM; in test [1], 8.8 nM; on EGFR (d746-750) it was 3.2 nM.

Regarding `COc1cc2ncnc(-c3cn(C)nc3-c3ccccc3)c2cc1NC(=O)c1sc(C2CC2)nc1C` [Example 354, 2-cyclopropyl-N-(7-methoxy-4-(1-methyl-3-phenyl-1H-pyrazol-4-yl)quinazolin-6-yl)-4-methylthiazole-5-carboxamide], the figures for the IC50 (on EGFR L858R; in test [1]; on EGFR (d746-750)) were 2.6 nM, 0.8 nM and 1.2 nM, respectively.

Take `CCOc1cc2ncnc(-c3cn(C)nc3-c3ccccc3)c2cc1NC(=O)c1cnn(CC)c1` [Example 298, N-(7-ethoxy-4-(1-methyl-3-phenyl-1H-pyrazol-4-yl)quinazolin-6-yl)-1-ethyl-1H-pyrazole-4-carboxamide]: the IC50 on EGFR L858R came to 1.6 nM; in test [1] it was 1 nM; at EGFR (d746-750), 0.9 nM.

On to `COc1cc2ncnc(-c3sc(C)nc3-c3ccccc3)c2nc1NC(=O)C1CC1` [Example 437, N-(7-methoxy-4-(2-methyl-4-phenylthiazol-5-yl)pyrido[3,2-d]pyrimidin-6-yl)cyclopropanecarboxamide], for which the figures for the IC50 (at EGFR L858R; in test [1]; on EGFR (d746-750)) were 1.4 nM, 4.2 nM and 0.8 nM, respectively.

For the compound `COc1cc2ncnc(-c3cn(C)nc3-c3ccccc3)c2cc1[C@@H]1CN(C)CCO1` [Example 130, (R)-2-(7-methoxy-4-(1-methyl-3-phenyl-1H-pyrazol-4-yl)quinazolin-6-yl)-4-methylmorpholine], the 50% inhibitory concentration (IC50) came out at 21.5 nM at EGFR L858R, 16.1 nM in test [1] and 5.2 nM on EGFR (d746-750).

For `COc1cc2ncnc(-c3cn(C)nc3-c3ccccc3)c2cc1-c1cccc2c1cnn2C` [Example 141, 7-methoxy-6-(1-methyl-1H-indazol-4-yl)-4-(1-methyl-3-phenyl-1H-pyrazol-4-yl)quinazoline], the values for the IC50 (on EGFR L858R; in test [1]; at EGFR (d746-750)) were 7.1 nM, 7.6 nM and 1.9 nM, respectively.

For the compound `CCn1cc(-c2ncnc3cc(OC)c(NC(=O)[C@]45COC[C@H]4C5)nc23)c(-c2ccccc2)n1` (single isomer, unassigned) [Example 388, (1S,5S)—N-(4-(1-ethyl-3-phenyl-1H-pyrazol-4-yl)-7-methoxypyrido[3,2-d]pyrimidin-6-yl)-3-oxabicyclo[3.1.0]hexane-1-carboxamide or (1R,5R)—N-(4-(1-ethyl-3-phenyl-1H-pyrazol-4-yl)-7-methoxypyrido[3,2-d]pyrimidin-6-yl)-3-oxabicyclo[3.1.0]hexane-1-carboxamide], the values for the IC50 (at EGFR L858R; in test [1]; on EGFR (d746-750)) were 4.8 nM, 0.4 nM and 0.5 nM, respectively.

With `COc1cc2ncnc(-c3cn(C)nc3-c3ccccc3)c2cc1[C@H]1CN(C)CCO1` (single isomer, unassigned) [Example 129, (S)-2-(7-methoxy-4-(1-methyl-3-phenyl-1H-pyrazol-4-yl)quinazolin-6-yl)-4-methylmorpholine or (R)-2-(7-methoxy-4-(1-methyl-3-phenyl-1H-pyrazol-4-yl)quinazolin-6-yl)-4-methylmorpholine], the IC50 on EGFR L858R turned out to be 4.3 nM; in test [1], 2.7 nM; on EGFR (d746-750), 1.1 nM.

As for `CCOc1cc2ncnc(-c3cn(C)nc3-c3ccccc3)c2cc1NC(=O)[C@@]12C[C@@H]1CN(C)C2` (single isomer, unassigned) [Example 256, (1S,5S)—N-(7-ethoxy-4-(1-methyl-3-phenyl-1H-pyrazol-4-yl)quinazolin-6-yl)-3-methyl-3-azabicyclo[3.1.0]hexane-1-carboxamide or (1R,5R)—N-(7-ethoxy-4-(1-methyl-3-phenyl-1H-pyrazol-4-yl)quinazolin-6-yl)-3-methyl-3-azabicyclo[3.1.0]hexane-1-carboxamide], the IC50 stood at 0.8 nM on EGFR L858R, 2 nM in test [1] and 0.4 nM on EGFR (d746-750).

Take `COc1cc2ncnc(-c3cn(C)nc3-c3ccccc3)c2cc1OC(=O)N1CCO[C@@H](C)[C@@H]1C` [Example 72, 7-methoxy-4-(1-methyl-3-phenyl-1H-pyrazol-4-yl)quinazolin-6-yl (2S,3S)-2,3-dimethylmorpholine-4-carboxylate]: the IC50 came to 3.8 nM on EGFR L858R, 5.1 nM in test [1] and 1.7 nM on EGFR (d746-750).

Consider `CN(C)C12CC(C(=O)Nc3nc4c(-c5cn(C)nc5-c5ccccc5F)ncnc4cc3OC(F)F)(C1)C2` [Example 468, N-[7-(difluoromethoxy)-4-[3-(2-fluorophenyl)-1-methyl-1H-pyrazol-4-yl]pyrido[3,2-d]pyrimidin-6-yl]-3-(dimethylamino) bicyclo[1.1.1]pentane-1-carboxamide], for which the values for the IC50 (on EGFR L858R; in test [1]; on EGFR (d746-750)) were 60.4 nM, 22 nM and 7.4 nM, respectively.

`COc1cc2ncnc(-c3cn(C)nc3-c3ccccc3)c2cc1NC(=O)c1cnn(C(C)C)c1` [Example 208, 1-isopropyl-N-(7-methoxy-4-(1-methyl-3-phenyl-1H-pyrazol-4-yl)quinazolin-6-yl)-1H-pyazole-4-carboxamide]: the concentration for half-maximal inhibition (IC50) was 1.1 nM at EGFR L858R, 1.8 nM in test [1] and 0.7 nM at EGFR (d746-750).

For the compound `COc1cc2ncnc(-c3cn(C)nc3-c3ccccc3)c2cc1NC(=O)C1(C)CCCO1` (stereo not drawn) [Example 224, N-(7-methoxy-4-(1-methyl-3-phenyl-1H-pyrazol-4-yl)quinazolin-6-yl)-2-methyltetrahydrofuran-2-carboxamide], the IC50 turned out to be 5.1 nM at EGFR L858R, 3.9 nM in test [1] and 3 nM at EGFR (d746-750).

`CCOc1cc2ncnc(-c3cn(C)nc3-c3ccccc3)c2cc1N1CCOCC1=O` [Example 267, 4-(7-ethoxy-4-(1-methyl-3-phenyl-1H-pyrazol-4-yl)quinazolin-6-yl)morpholin-3-one]: the IC50 was found to be 109 nM at EGFR L858R, 12.1 nM in test [1] and 9.8 nM on EGFR (d746-750).

Consider `COc1cc2ncnc(-c3cn(CC(F)(F)F)nc3-c3ccccc3)c2cc1OC(=O)N1CCN(C)C[C@@H]1C` [Example 60, 7-methoxy-4-(3-phenyl-1-(2,2,2-trifluoroethyl)-1H-pyrazol-4-yl)quinazolin-6-yl(S)-2,4-dimethylpiperazine-1-carboxylate], for which the IC50 came to 5.1 nM at EGFR L858R, 3.6 nM in test [1] and 3.6 nM on EGFR (d746-750).

In the case of `COc1cc2ncnc(-c3cn(C)nc3-c3ccccc3)c2cc1OC(=O)N1C[C@H](C)OC[C@@H]1C` (racemic) [Example 92, cis-rac-7-methoxy-4-(1-methyl-3-phenyl-1H-pyrazol-4-yl)quinazolin-6-yl (2R,5S)-2,5-dimethylmorpholine-4-carboxylate or trans-rac-7-methoxy-4-(1-methyl-3-phenyl-1H-pyrazol-4-yl)quinazolin-6-yl (2S,5S)-2,5-dimethylmorpholine-4-carboxylate], the figures for the half-maximal inhibitory concentration (IC50) (at EGFR L858R; in test [1]; at EGFR (d746-750)) were 9.3 nM, 13.4 nM and 3.4 nM, respectively.

Regarding `COc1cc2ncnc(-c3cn(C)nc3-c3ccccc3)c2nc1OC(C)c1nnc(C)o1` (stereo not drawn) [Example 27, 2-(1-((7-methoxy-4-(1-methyl-3-phenyl-1H-pyrazol-4-yl)pyrido[3,2-d]pyrimidin-6-yl)oxy)ethyl)-5-methyl-1,3,4-oxadiazole], the concentration for half-maximal inhibition (IC50) at EGFR L858R was 5.5 nM; in test [1], 8.1 nM; at EGFR (d746-750), 3 nM.

In the case of `COc1cc2ncnc(-c3cn(C)nc3-c3ccccc3)c2cc1NC(=O)c1cccc(C)n1` [Example 329, N-(7-methoxy-4-(1-methyl-3-phenyl-1H-pyrazol-4-yl)quinazolin-6-yl)-6-methylpicolinamide], the half-maximal inhibitory concentration (IC50) on EGFR L858R was found to be 1.4 nM; in test [1], 1.3 nM; at EGFR (d746-750) it was 0.9 nM.

Take `CCOc1cc2ncnc(-c3cn(CC(F)F)nc3-c3ccccc3)c2cc1CO` [Example 123, (4-(1-(2,2-difluoroethyl)-3-phenyl-1H-pyrazol-4-yl)-7-ethoxyquinazolin-6-yl)methanol]: the IC50 at EGFR L858R came to 1.6 nM; in test [1], 3 nM; on EGFR (d746-750) it was 1 nM.

For `COc1cc2ncnc(-c3cn(C)nc3-c3ccccc3)c2cc1OC(=O)N1[C@@H](C)CN(C)C[C@@H]1C` [Example 79, 7-methoxy-4-(1-methyl-3-phenyl-1H-pyrazol-4-yl)quinazolin-6-yl (2S,6S)-2,4,6-trimethylpiperazine-1-carboxylate], the values for the IC50 (on EGFR L858R; in test [1]; on EGFR (d746-750)) were 6.5 nM, 9.6 nM and 3.1 nM, respectively.
